In patent US5470836A, “Paromomycin or its derivatives or salts thereof in combination with sodium stirogluconate for parenteral treatment of human parasitic diseases” (priority 1988, dated 1995):
“And” between values parts separate entries of the source, which are not always exact repeats. Identical values can stand only once. “Also recorded” adds a separate entry of the source.

Columns and labels:
[1] = test system: visceral leishmaniasis (leishmaniasis amastigotes in spleen aspirates); assay: Randomised clinical trial in newly diagnosed visceral leishmaniasis: clinical and parasitologic cure (Example 2); format: in vivo, human; settings: for Clinical cures, % / Clinical cures, No.: at termination, complete abatement of initial symptoms with marked reduction of spleen size; for Apparent cures, % / Apparent cures, No.: negative spleen aspirate smears at termination of treatment; for Failures, % / Failures, No.: partial cures and relapses; for Partial cures, % / Partial cures, No.: persistence of low parasite counts in terminal spleen aspirates; for Definite cures, % / Definite cures, No.: persisting clinical cure with negative spleen aspirates 6 months after termination; for Relapses, % / Relapses, No.: reappearance of leishmanial parasites after an apparent cure; for Mean treatment duration: treated until first negative spleen aspirate or for 20 consecutive days
Experimental: (§1) Patients newly diagnosed with visceral leighmaniasis, confirmed by the presence of leishmaniasis amastigotes in spleen aspirates, were allocated randomly to groups subjected to the following treatments:
(§2) 1) IV/IM sodium stibogluconate (SbV) 20 mg/kg body weight once per day;
(§3) 2) IM paromomycin sulphate (PM) 14-16 mg/kg body weight once per day;
(§4) 3) IV/IM sodium stibogluconate 20 mg/kg body weight once per day and paromomycin sulphate 14-16 mg/kg body weight once per day.
(§5) All treatments were administered until the first negative spleen aspirate was obtained, or for 20 consecutive days regardless of aspirate findings.
Exclusion criteria were: […]; known allergy to aminoglycoside compounds: pregnancy; haemoglobin assay below 40 g/l; abnormal prothrombin time; impaired liver or renal function; major concurrent infection; previous drug treatment for leishmaniasis; and spleen smear-parasite grading of less than 4+.
(§6) The following procedures were conducted for patient assessment at intake and at suitable intervals during and after treatment: clinical history writeup: physical examination: body weight: chest X-ray: ECG tracing: liver and kidney function tests: blood picture and blood smears (to rule out malaria): complete urinalysis: stool examination: prothrombin time: and spleen aspirate smear examination by the method of Chulay & Bryceson, Quantitations of amastigotes of leishmania donovani in smears of splenic aspirates from patients with visceral leishmaniasis, American Journal of Tropical Medicine and Hygiene, 32, 1983, 475-479.
Treatment of effectiveness was graded under the following headings:
Clinical cure: complete abatement of initial symptoms with marked reduction of spleen size;
Partial cure: persistence of low parasite counts in terminal spleen aspirates;
Apparent cure: negative spleen aspirate smears at termination of treatment;
Relapse: reappearance of leishmanial parasites after an apparent cure;
Definite cure: persisting clinical cure with negative spleen aspirates 6 months after termination of treatment;
Failures: partial cures and relapses.
(§7) Drug safety was assessed for each treatment regime in terms of incidence of drug-related signs and symptoms and of laboratory test results return abnormalities. The assembled data were processed statistically by the Fisher's exact test (chi-square) and Pearson's correlation coefficient.

[2] = test system: visceral leishmaniasis; assay: Clinical, haematologic and parasite indices during treatment and follow-up (Example 2); format: in vivo, human; settings: mean
Experimental: as §1, §2, §3, §4, §5, §6

[3] = Drug safety: adverse effects and complications (Example 2); format: in vivo, human
Experimental: as §1, §2, §3, §4, §5, §6, §7

[4] = Blood biochemistry during treatment and follow-up (Example 2); format: in vivo, human
Experimental: as §2, §3, §4, §5, §6
The assembled data were processed statistically by the Fisher's exact test (chi-square) and Pearson's correlation coefficient.

[5] = test system: visceral leishmaniasis; settings: parenteral, 20 mg/kg body weight over 30 days; cited from earlier work
[6] = test system: Kala-azar; settings: 20 mg SbV/kg daily for 40 days; cited from earlier work

With NC[C@@H]1O[C@H](O[C@H]2[C@@H](O)[C@H](O[C@@H]3[C@@H](O)[C@H](N)C[C@H](N)[C@H]3O[C@H]3O[C@H](CO)[C@@H](O)[C@H](O)[C@H]3N)O[C@@H]2CO)[C@H](N)[C@@H](O)[C@@H]1O [PM, paromomycin sulphate] the “Clinical cures, %” value [1] was 100%, the “Clinical cures, No.” value [1] was 19 No and the “incidence of relapses (in words)” value ([1]; comparison of treatment groups) was “least incidence of relapses; also recorded: smallest share of relapses; also recorded: low rate of relapses”. For the same compound, the “parasitologic effectiveness (in words)” value ([1]; comparison of treatment groups) was “best results”, the “share of partial cures (in words)” value ([1]; comparison of treatment groups) was “highest share of partial cures” and the “Apparent cures, %” value [1] was 84.2%. The “Apparent cures, No.” value [1] was 16 No, the “Failures, %” value [1] was 21% and the “Failures, No.” value [1] was 4 No. The “Partial cures, %” value [1] was 15.8%, the “Partial cures, No.” value [1] was 3 No and the “Definite cures, %” value [1] was 79%. For the same compound, the “Definite cures, No.” value [1] was 15 No, the “Relapses, %” value [1] was 5.2% and the “Relapses, No.” value [1] was 1 No. For the same compound, the Mean treatment duration [1] was 19 days, the Eosinophil count ([2]; Day 0 (intake)) was 0 /cu mm and the Heart rate ([2]; Day 0 (intake)) was 105 min⁻¹. For the same compound, the Hemoglobin assay ([2]; Day 0 (intake)) was 7.1 g/dL, the Parasite grading ([2]; Day 0 (intake)) was 5 and the Spleen size ([2]; Day 0 (intake)) was 15.5 cm. The Temp ([2]; Day 0 (intake)) was 38.3 °C, the Weight ([2]; Day 0 (intake)) was 34.0 kg and the Eosinophil count ([2]; Day 20) was 2 /cu mm. The Heart rate ([2]; Day 20) was 84 min⁻¹, the Hemoglobin assay ([2]; Day 20) was 10.0 g/dL and the Parasite grading ([2]; Day 20) was 1. It also gave a Spleen size ([2]; Day 20) of 8.4 cm, a Temp ([2]; Day 20) of 36.1 °C and a Weight ([2]; Day 20) of 37.0 kg. The Eosinophil count ([2]; Day 75) was 1 /cu mm, the Heart rate ([2]; Day 75) was 82 min⁻¹ and the Hemoglobin assay ([2]; Day 75) was 12.3 g/dL. It also gave a Parasite grading ([2]; Day 75) of 1, a Spleen size ([2]; Day 75) of 4.3 cm and a Temp ([2]; Day 75) of 36.1 °C. For the same compound, the Weight ([2]; Day 75) was 39.1 kg, the “Adverse effects, %” value ([3]; in vivo) was 0% and the “Adverse effects, No.” value ([3]; in vivo) was 0 No. For the same compound, the “antibiotic treatment needed for pneumonia” value ([3]; in vivo) was “did not need additional antibiotic medication”, the “bouts of pneumonia, cases” value ([3]; in vivo) was 4 cases and the “side effects (in words)” value ([3]; in vivo) was “no side effects”.
For sodium stibogluconate [SbV], the “Clinical cures, %” value [1] was 100%, the “Clinical cures, No.” value [1] was 11 No and the “parasitologic effectiveness (in words)” value ([1]; comparison of treatment groups) was “by far the least effective of all”. The “Apparent cures, %” value [1] was 90.9%, the “Apparent cures, No.” value [1] was 10 No and the “Failures, %” value [1] was 45.5% and 45. %. The “Failures, No.” value [1] was 5 No, the “Partial cures, %” value [1] was 9.1% and the “Partial cures, No.” value [1] was 1 No. For the same compound, the “Definite cures, %” value [1] was 54.5%, the “Definite cures, No.” value [1] was 6 No and the “Relapses, %” value [1] was 36.4%. The “Relapses, No.” value [1] was 4 No, the Mean treatment duration [1] was 17 days and the Eosinophil count ([2]; Day 0 (intake)) was 0 /cu mm. The Heart rate ([2]; Day 0 (intake)) was 112 min⁻¹, the Hemoglobin assay ([2]; Day 0 (intake)) was 7.6 g/dL and the Parasite grading ([2]; Day 0 (intake)) was 5. It also gave a Spleen size ([2]; Day 0 (intake)) of 14.5 cm, a Temp ([2]; Day 0 (intake)) of 38.5 °C and a Weight ([2]; Day 0 (intake)) of 33.2 kg. For the same compound, the Eosinophil count ([2]; Day 20) was 1 /cu mm, the Heart rate ([2]; Day 20) was 92 min⁻¹ and the Hemoglobin assay ([2]; Day 20) was 8.9 g/dL. For the same compound, the Parasite grading ([2]; Day 20) was 1, the Spleen size ([2]; Day 20) was 7 cm and the Temp ([2]; Day 20) was 36.2 °C. For the same compound, the Weight ([2]; Day 20) was 27.3 kg, the Eosinophil count ([2]; Day 75) was 1 /cu mm and the Heart rate ([2]; Day 75) was 80 min⁻¹. For the same compound, the Hemoglobin assay ([2]; Day 75) was 11.6 g/dL, the Parasite grading ([2]; Day 75) was 1 and the Spleen size ([2]; Day 75) was 5 cm. The Temp ([2]; Day 75) was 36.9 °C, the Weight ([2]; Day 75) was 36.7 kg and the “ALAT (Alanine aminotransferase)” value ([4]; Day 0) was 25.4 I.U./l. The “ALP (Alkaline phosphatase)” value ([4]; Day 0) was 87.6 I.U./l, the “ASAT (Aspartate aminotransferase)” value ([4]; Day 0) was 20.2 I.U./l and the Albumin ([4]; Day 0) was 31.3 g/L. The BUN assay ([4]; Day 0) was 8.2 mmol/L, the Bilirubin ([4]; Day 0) was 6.4 µmol/L and the Creatinine ([4]; Day 0) was 73.6 µmol/L. The “ALAT (Alanine aminotransferase)” value ([4]; Day 10) was 24.0 I.U./l, the “ALP (Alkaline phosphatase)” value ([4]; Day 10) was 79.1 I.U./l and the “ASAT (Aspartate aminotransferase)” value ([4]; Day 10) was 19.2 I.U./l. It also gave an Albumin ([4]; Day 10) of 30.3 g/L, a BUN assay ([4]; Day 10) of 8.1 mmol/L and a Bilirubin ([4]; Day 10) of 4.1 µmol/L. For the same compound, the Creatinine ([4]; Day 10) was 68.0 µmol/L, the “ALAT (Alanine aminotransferase)” value ([4]; Day 20) was 22.0 I.U./l and the “ALP (Alkaline phosphatase)” value ([4]; Day 20) was 71.0 I.U./l. The “ASAT (Aspartate aminotransferase)” value ([4]; Day 20) was 21.0 I.U./l, the Albumin ([4]; Day 20) was 29.5 g/L and the BUN assay ([4]; Day 20) was 4.0 mmol/L. The Bilirubin ([4]; Day 20) was 3.8 µmol/L, the Creatinine ([4]; Day 20) was 53.0 µmol/L and the “ALAT (Alanine aminotransferase)” value ([4]; Day 75) was 25.3 I.U./l. For the same compound, the “ALP (Alkaline phosphatase)” value ([4]; Day 75) was 83.7 I.U./l, the “ASAT (Aspartate aminotransferase)” value ([4]; Day 75) was 25.5 I.U./l and the Albumin ([4]; Day 75) was 36.6 g/L. It also gave a BUN assay ([4]; Day 75) of 3.8 mmol/L, a Bilirubin ([4]; Day 75) of 4.5 µmol/L and a Creatinine ([4]; Day 75) of 73.5 µmol/L. The “ALAT (Alanine aminotransferase)” value ([4]; Day 195) was 23.0 I.U./l, the “ALP (Alkaline phosphatase)” value ([4]; Day 195) was 84.0 I.U./l and the “ASAT (Aspartate aminotransferase)” value ([4]; Day 195) was 22.0 I.U./l. For the same compound, the Albumin ([4]; Day 195) was 40.0 g/L, the BUN assay ([4]; Day 195) was 4.0 mmol/L and the Bilirubin ([4]; Day 195) was 4.0 µmol/L. For the same compound, the Creatinine ([4]; Day 195) was 78.9 µmol/L, the “Adverse effects, %” value ([3]; in vivo) was 27% and the “Adverse effects, No.” value ([3]; in vivo) was 3 No. The “bouts of pneumonia, cases” value ([3]; in vivo) was 5 cases, the “side effects (in words)” value ([3]; in vivo) was “distinctly more side effects” and the “antibiotic treatment needed for pneumonia” value ([3]; patients with pneumonia) was “required antibiotic treatment”. The cure rate [5] was “about 80%” and the failures [6] was 8%.
For vitamin K, the incidence of epistaxis ([3]; vitamin K 10 mg daily for 5 days, low initial haemoglobin and prolonged prothrombin time) was “significantly reduced”.
